Test results as given in patent US4537886A, “β-lactam antibacterial agents and compositions containing them” (Beecham Group p.l.c., priority 1982, dated 1985).
In brackets after ≈: the same amount, converted by molar mass. Structures can show the parent of a compound that is named as a salt. Where two headings read alike, the source gives them in different places.

System: E. coli NCTC 10418
Experiment: MIC against E. coli NCTC 10418
Assay type: cell-based
Details: Escherichia coli
[1] = NCTC10418, read-out: MIC against E. coli NCTC 10418

Row | SMILES | MIC [1] [µg/mL] | further results
1 | Cc1c(C(=O)N[C@@H](C(=O)N[C@@H]2C(=O)N3[C@@H]2SC(C)(C)[C@@H]3C(=O)O)c2ccccc2)c(=O)[nH]n1-c1ccccc1 [Example 16, 6β-[D,2-(3-Methyl-2-phenyl-3-pyrazolin-5-one-4-carbonyl-amino)-2-phenyl]acetamido penicillanic acid, sodium salt] | 25 | 
2 | Cn1cc(C(=O)N[C@@H](C(=O)N[C@@H]2C(=O)N3[C@@H]2SC(C)(C)[C@@H]3C(=O)O)c2ccccc2)c(=O)n1-c1ccccc1 [Example 8, 6β-[D,2-(2-Methyl-1-phenyl-3-pyrazolin-5-one-4-carbonylamino)-2-phenyl]acetamido penicillanic acid (sodium salt)] | 10 | 
3 | Cc1c(C(=O)N[C@@H](C(=O)N[C@@H]2C(=O)N3[C@@H]2SC(C)(C)[C@@H]3C(=O)O)c2ccccc2)c(=O)n(-c2ccccc2)n1C [Example 1, 6β-[D,2-(2,3-dimethyl-1-phenyl-3-pyrazolin-5-one-4-carbonylamino)-2-phenyl]acetamido penicillanic acid, sodium salt] |  | MIC (NCTC10418, E. coli NCTC 10418, unit as printed in Example 1, read-out: MIC against E. coli NCTC 10418): 5 µg/mL
4 | CC1(C)S[C@@H]2[C@H](NC(=O)[C@H](NC(=O)c3cn(-c4ccc(N)cc4)[nH]c3=O)c3ccccc3)C(=O)N2[C@H]1C(=O)O [Example 12, 6β-[D,2-(2-(4-Aminophenyl)-3-pyrazolin-5-one-4-carbonylamino)-2-phenyl] acetamido penicillanic acid (sodium salt)] | 5 | 
5 | CCn1c(C)c(C(=O)N[C@@H](C(=O)N[C@@H]2C(=O)N3[C@@H]2SC(C)(C)[C@@H]3C(=O)O)c2ccccc2)c(=O)n1-c1ccc(N)cc1 [Example 7, 6β-[D2,-(2-Ethyl-3-methyl-1-(4-aminophenyl)-3-pyrazolin-5-one-4-carbonylamino)-2-phenyl]acetamido penicillanic acid (sodium salt)] |  | MIC (NCTC 10418 / NCTC 1048, E. coli NCTC 1048 as printed in Example 7, read-out: MIC against E. coli NCTC 1048): 50 µg/mL
6 | CC1(C)S[C@@H]2[C@H](NC(=O)[C@H](NC(=O)c3cn(-c4ccc(O)cc4)[nH]c3=O)c3ccccc3)C(=O)N2[C@H]1C(=O)O [Example 15, 6β-[D,2-(2-(4-Hydroxyphenyl)-3-pyrazolin-5-one-4-carbonylamino)-2-phenyl] acetamido penicillanic acid (sodium salt)] | 2 | 
7 | CC1(C)S[C@@H]2[C@H](NC(=O)[C@H](NC(=O)c3cn(-c4ccccc4)[nH]c3=O)c3ccccc3)C(=O)N2[C@H]1C(=O)O [Example 3, 6β-[D,2-(2-phenyl-3-pyrazolin-5-one-4-carbonylamino)-2-phenyl]acetamido penicillanic acid, sodium salt] | 2.5 | 
8 | CC1(C)S[C@@H]2[C@H](NC(=O)[C@H](NC(=O)c3cn(-c4ccc(Br)cc4)[nH]c3=O)c3ccccc3)C(=O)N2[C@H]1C(=O)O [Example 17, 6β-[D,2-(2-p-Bromophenyl-3-pyrazolin-5-one-4-carbonylamino)-2-phenyl]acetamido penicillanic acid, sodium salt] | 1 | 
9 | CC1(C)S[C@@H]2[C@H](NC(=O)[C@H](NC(=O)c3cn(-c4ccc([N+](=O)[O-])cc4)[nH]c3=O)c3ccc(O)cc3)C(=O)N2[C@H]1C(=O)O [Example 13, 6β-[D,2-(2-(4-Nitrophenyl)-3-pyrazolin-5-one-4-carbonylamino)-2-(4-hydroxyphenyl)] acetamido penicillanic acid (sodium salt)] | 5 | 
10 | CC(=O)OCC1=C(C(=O)O)N2C(=O)[C@@H](NC(=O)[C@H](NC(=O)c3cn(-c4ccc([N+](=O)[O-])cc4)[nH]c3=O)c3ccccc3)[C@H]2SC1 [Example 18, 7β-[D,2-(2-p-Nitrophenyl-3-pyrazolin-5-one-4-carbonyl-amino)-2-phenyl]acetamido-3-acetoxymethylceph-3-em-4-carboxylic acid, sodium salt] | 1 | 
11 | CC(=O)OCC1=C(C(=O)O)N2C(=O)[C@@H](NC(=O)[C@H](NC(=O)c3cn(-c4ccc(N)cc4)[nH]c3=O)c3ccccc3)[C@H]2SC1 [Example 19, 7β-[D,2-(2-p-Aminophenyl-3-pyrazolin-5-one-4-carbonylamino)-2-phenyl]acetamido-3-acetoxymethylceph-3-em-4-carboxylic acid, sodium salt] | 5 | 
12 | Cn1cc(C(=O)N[C@@H](C(=O)N[C@@H]2C(=O)N3[C@@H]2SC(C)(C)[C@@H]3C(=O)O)c2ccccc2)c(=O)n1Cc1ccccc1 [Example 9, 6β-[D,2-(1-Benzyl-2-methyl-3-pyrazolin-5-one-4-carbonylamino)-2-phenyl]acetamido penicillanic acid (sodium salt)] | 5 | 
13 | COc1nn(-c2ccc(N)cc2)cc1C(=O)N[C@@H](C(=O)N[C@@H]1C(=O)N2[C@@H]1SC(C)(C)[C@@H]2C(=O)O)c1ccccc1 [Example 22, 6β-[D,2-([1H]-1-(4-Aminophenyl)-3-methoxypyrazole-4-carbonylamino)-2-phenyl]acetamido penicillanic acid, sodium salt] | 16 | 

Second part, led by results:

Row | MIC [1] [µg/mL] | SMILES | further results
14 | 5 | Cc1c(C(=O)N[C@@H](C(=O)N[C@@H]2C(=O)N3[C@@H]2SC(C)(C)[C@@H]3C(=O)O)c2ccccc2)c(=O)n(-c2ccc(Br)cc2)n1C [Example 10, 6β-[D,2-(2,3-Dimethyl-1-(4-bromophenyl)-3-pyrazolin-5-one-4-carbonylamino)-2-phenyl]acetamido penicillanic acid (sodium salt)] | 
15 | 12.5 | COc1c(C(=O)N[C@@H](C(=O)N[C@@H]2C(=O)N3[C@@H]2SC(C)(C)[C@@H]3C(=O)O)c2ccccc2)cnn1-c1ccccc1 [Example 5, 6β-[D,2-(2H,3-Methoxy-2-phenyl-pyrazole-4-carbonylamino)-2-phenyl]acetamido penicillanic acid, sodium salt] | 
16 | 2.5 | CC1(C)S[C@@H]2[C@H](NC(=O)[C@H](NC(=O)c3cn(-c4ccc([N+](=O)[O-])cc4)[nH]c3=O)c3ccccc3)C(=O)N2[C@H]1C(=O)O [Example 11, 6β-[D,2-(2-(4-Nitrophenyl)-3-pyrazolin-5-one-4-carbonylamino)-2-phenyl] acetamido penicillanic acid (sodium salt)] | 
17 | 10 | Cc1ccc(-n2cc(C(=O)N[C@@H](C(=O)N[C@@H]3C(=O)N4[C@@H]3SC(C)(C)[C@@H]4C(=O)O)c3ccccc3)c(=O)[nH]2)cc1 [Example 23, 6β-[D,2-(2-[4-Methylphenyl]pyrazol-3-in-5-one-4-carbonylamino)-2-phenyl] acetamido penicillanic acid, sodium salt] | 
18 | 8 | COc1nn(-c2ccc([N+](=O)[O-])cc2)cc1C(=O)N[C@@H](C(=O)N[C@@H]1C(=O)N2[C@@H]1SC(C)(C)[C@@H]2C(=O)O)c1ccccc1 [Example 21, 6-β-[D,2-([1H]-3-Methoxy-1-[4-nitrophenyl]pyrazole-4-carbonylamino)-2-phenyl]acetamido penicillanic acid, sodium salt] | 
19 | 25 (≈ 40.2 µM) | CCn1c(C)c(C(=O)N[C@@H](C(=O)N[C@@H]2C(=O)N3[C@@H]2SC(C)(C)[C@@H]3C(=O)O)c2ccccc2)c(=O)n1-c1ccc([N+](=O)[O-])cc1 [Example 6, 6β-[D,2-(2-Ethyl-3-methyl-1-(4-nitrophenyl)-3-pyrazolin-5-one-4-carbonylamino)-2-phenyl]acetamido penicillanic acid] | 
20 | 0.25 | COc1ccc(-n2cc(C(=O)N[C@@H](C(=O)N[C@@H]3C(=O)N4[C@@H]3SC(C)(C)[C@@H]4C(=O)O)c3ccccc3)c(=O)[nH]2)cc1 [Example 20, 6β-[D,2-(2-[4-Methoxyphenyl]-pyrazol-3-in-5-one-4-carbonylamino)-2-phenyl]acetamido penicillanic acid, sodium salt] | 
21 | 2.5 | CC1(C)S[C@@H]2[C@H](NC(=O)[C@H](NC(=O)c3cn(-c4ccc(N)cc4)[nH]c3=O)c3ccc(O)cc3)C(=O)N2[C@H]1C(=O)O [Example 14, 6β-[D,2-(2-(4-Aminophenyl)-3-pyrazolin-5-one-4-carbonylamino)-2-(4-hydroxyphenyl)] acetamido penicillanic acid (sodium salt)] | 
22 | 2 | CC1(C)S[C@@H]2[C@H](NC(=O)[C@H](NC(=O)c3cnn(-c4ccccc4)c3O)c3ccccc3)C(=O)N2[C@H]1C(=O)O [Example 4, 6β-[D,2-(2H,3-Hydroxy-2-phenylpyrazole-4-carbonylamino)-2-phenyl]acetamido penicillanic acid (sodium salt)] | 
23 | 12.5 | Cc1c(C(=O)N[C@@H](C(=O)N[C@@H]2C(=O)N3[C@@H]2SC(C)(C)[C@@H]3C(=O)O)c2ccc(O)cc2)c(=O)n(-c2ccccc2)n1C [Example 2, 6β-[D,2-(2,3-dimethyl-1-phenyl-3-pyrazolin-5-one-4-carbonylamino)-2-(4-hydroxyphenyl)]acetamido penicillanic acid, sodium salt] | 
